Measurements as given in patent US20230322771A1, “HETEROCYCLIC GLP-1 AGONISTS” (Gasherbrum Bio, Inc., priority 2020, published 2023).

Target: GLP-1 Receptor (Homo sapiens, UniProt P43220)
Test: GLP-1R agonist cAMP stimulation assay (HEK293/GLP1R/CRE-LUC cells, HTRF cAMP dynamic 2 kit)
Format: cell-based
Conditions: HEK293/CRE-Luc cell line (HDB) stably expressing GLP-1 Receptor; 30 min incubation at 37° C.; read-out: GLP1R cAMP Stimulation DR: EC50 (nM) [Species: Human, Assay Cell Line: HDB]
Protocol: Activation of GLP-1 receptor is known to stimulate cyclic AMP (cAMP) production in cells which indicates primary coupling to the Gαs subunit of the G protein heterotrimeric complex.
To optimize functional activity directed toward Gαs coupling, a HEK293/CRE-Luc cell line developed by HDB stably expressing the GLP-1 Receptor was used. 200× concentration of compound working solutions were prepared (Agilent Technologies Bravo) with ½ log serial dilution in 384-well Echo LDV plate (Labcyte, Cat #LP-0200). 50 nL/well 200× concentration of compound working solutions were moved to 384-well white low volume plate (Greiner, Cat #784075) using Labcyte ECHO550. 1×10^5 cells/mL HEK293/GLP1R/CRE-LUC(HD Biosciences) cell suspensions prepared with assay buffer[DPBS containing 0.5 mM IBMX(Sigma, Cat #15879) and 0.1% BSA(GENVIEW, Cat #FA016-100 g)], 10 uL cell suspensions were added to each well of previous generated assay plate which already contains 50 nl compound at 200× concentration using ThermoFisher Multidrop Combi(1000 cells/well). Seal the plate and incubate at 37° C. with 5% CO2 for 30 min.
After incubation the cAMP assay signal was generated using cAMP dynamic 2 Kit (Cisbio). 5 μL cAMP-d2 working solution was added to each well, followed with 5 μL Anti-cAMP antibody-cryptate working solution added to each well using ThermoFisher Multidrop Combi. Incubate at room temperature for 1 hour protected from light. Read the fluorescence at 665 and 615 nm with Reader PerkinElmer EnVision.
% Activity=100%×(mean RLU of test sample−mean RLU of vehicle control)/(mean RLU of MAX control−mean RLU of vehicle control))

GLP-1 Receptor, sequence (P43220 24-463): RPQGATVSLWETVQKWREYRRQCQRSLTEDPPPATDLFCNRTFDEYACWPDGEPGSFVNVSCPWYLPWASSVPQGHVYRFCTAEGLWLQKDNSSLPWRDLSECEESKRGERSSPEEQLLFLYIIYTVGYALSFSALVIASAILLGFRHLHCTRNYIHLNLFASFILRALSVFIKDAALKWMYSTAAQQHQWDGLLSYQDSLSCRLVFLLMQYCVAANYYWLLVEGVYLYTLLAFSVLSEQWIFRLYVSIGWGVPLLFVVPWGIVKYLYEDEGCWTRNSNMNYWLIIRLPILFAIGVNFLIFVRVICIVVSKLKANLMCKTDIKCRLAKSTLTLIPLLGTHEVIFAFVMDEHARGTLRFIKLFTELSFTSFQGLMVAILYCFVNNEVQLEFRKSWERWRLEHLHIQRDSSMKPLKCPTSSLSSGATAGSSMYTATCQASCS

EC50 [nM] | Compound
0.32 | CCS(=O)(=O)C(C)c1ccc(-n2ccn(-c3c4c(nn3-c3cc(C)c(F)c(C)c3)CCN(C(=O)c3cc5cc(C6CCOCC6)ccc5n3[C@@]3(c5noc(=O)[nH]5)C[C@@H]3C)[C@H]4C)c2=O)c(F)c1 (stereo partly drawn) [Compound 111a, 3-((1S,2S)-1-(2-((4S)-3-(3-(4-(1-(ethylsulfonyl)ethyl)-2-fluorophenyl)-2-oxo-2,3-dihydro-1H-imidazol-1-yl)-2-(4-fluoro-3,5-dimethylphenyl)-4-methyl-4,5,6,7-tetrahydro-2H-pyrazolo[4,3-c]pyridine-5-carbonyl)-5-(tetrahydro-2H-pyran-4-yl)-1H-indol-1-yl)-2-methylcyclopropyl)-1,2,4-oxadiazol-5(4H)-one]
0.17 | CCS(=O)(=O)Cc1ccc(-n2ccn(-c3c4c(nn3-c3cc(C)c(F)c(C)c3)CCN(C(=O)c3cc5cc(C6CCOCC6)ccc5n3C3(c5noc(=O)[nH]5)CC3)[C@H]4C)c2=O)cc1 [Compound 112a, (S)-3-(1-(2-(3-(3-(4-((ethylsulfonyl)methyl)phenyl)-2-oxo-2,3-dihydro-1H-imidazol-1-yl)-2-(4-fluoro-3,5-dimethylphenyl)-4-methyl-4,5,6,7-tetrahydro-2H-pyrazolo[4,3-c]pyridine-5-carbonyl)-5-(tetrahydro-2H-pyran-4-yl)-1H-indol-1-yl)cyclopropyl)-1,2,4-oxadiazol-5(4H)-one]
0.55 | CCS(=O)(=O)C(C)c1ccc(-n2ccn(-c3c4c(nn3-c3cc(C)c(F)c(C)c3)CCN(C(=O)c3cc5cc(C6CCOCC6)ccc5n3C3(c5noc(=O)[nH]5)CC3)[C@H]4C)c2=O)c(F)c1 (stereo partly drawn) [Compound 113a, 3-(1-(2-((4S)-3-(3-(4-(1-(ethylsulfonyl)ethyl)-2-fluorophenyl)-2-oxo-2,3-dihydro-1H-imidazol-1-yl)-2-(4-fluoro-3,5-dimethylphenyl)-4-methyl-4,5,6,7-tetrahydro-2H-pyrazolo[4,3-c]pyridine-5-carbonyl)-5-(tetrahydro-2H-pyran-4-yl)-1H-indol-1-yl)cyclopropyl)-1,2,4-oxadiazol-5(4H)-one]
